These results are taken from EP0486280A2, “Piperidinylcamphorsulfonyl oxytocin antagonists” (MERCK & CO. INC., priority 1990, dated 1992).

The assay has as its target T1, uterine OT receptors (Rattus norvegicus, UniProt P70536).
T1 construct: from tissue; host or cells: uterus of DES-treated rats, crude membranes
T1 sequence (P70536 1-388): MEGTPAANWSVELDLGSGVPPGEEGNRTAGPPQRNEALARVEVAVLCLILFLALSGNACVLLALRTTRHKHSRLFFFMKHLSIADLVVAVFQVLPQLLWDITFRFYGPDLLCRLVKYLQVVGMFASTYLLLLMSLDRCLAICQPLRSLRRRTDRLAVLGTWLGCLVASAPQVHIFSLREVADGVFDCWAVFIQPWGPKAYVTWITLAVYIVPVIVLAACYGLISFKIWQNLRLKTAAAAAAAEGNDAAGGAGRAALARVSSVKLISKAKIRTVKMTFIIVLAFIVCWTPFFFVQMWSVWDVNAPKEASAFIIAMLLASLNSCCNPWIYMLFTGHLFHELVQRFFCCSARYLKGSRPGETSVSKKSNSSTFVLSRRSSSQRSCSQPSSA
Nature of the assay: saturation binding of [^3H]OT, crude membrane preparation of uteri. The conditions noted are these: radioligand Kd from saturation binding assay; uterus. Also noted: species or system rats. The protocol: The high affinity binding of [^3H] Oxytocin(OT)([tyrosyl, 3,5-[^3H]OT; 30-60 Ci/mmol; New England Nuclear. Boston, MA) to uterine OT receptors was based on an assay^* using a crude membrane preparation of uteri taken from diethylstilbestrol dipropionate (DES)-treated (0.3 mg/kg, ip; 18-24) rats. Competition studies were conducted at equilibrium (60 minutes; 22°C) using 1 nM[^3H]OT in the following assay buffer: 50 mM Tris-HCI, 5 mM MgCl2, and 0.1% BSA, pH 7.4. Nonspecific binding (10% of the total binding) was determined using 1 mM unlabeled OT and the binding reaction was terminated by filtration through glass fiber filters using a cell harvester (model 7019, Skatron, Inc., Sterling, VA).
1985 J. Clin. Endocrinol. Metab. 60:37.

SMILES strings stand for the structures. pKd: −log10 of the molar value.

`CC[C@H](C)[C@@H]1NC(=O)[C@H](Cc2ccc(O)cc2)NC(=O)[C@@H](N)CSSC[C@@H](C(=O)N2CCC[C@H]2C(=O)N[C@@H](CC(C)C)C(=O)NCC(N)=O)NC(=O)[C@H](CC(N)=O)NC(=O)[C@H](CCC(N)=O)NC1=O` [[^3H]OT] gave a pKd of 9.15.
